Earlier results as cited in patent US20230065900A1, “COMPOSITIONS AND METHODS FOR MODULATING INFLAMMATION AND WOUND HEALING” (Alastin Skincare, Inc., priority 2020, published 2023).

Test system: hyaluronic acid level
Details: ex vivo human skin model

## CCCCCCCC(=O)CCc1ccc(O)c(OC)c1 [hydroxymethoxyphenyl decanone]
  stimulation of dermal hyaluronic acid level versus placebo: 259%
  stimulation of epidermal hyaluronic acid level versus placebo: 198%
